{"source": "patent US20230065416A1", "about": "“CLATHRIN-CHIMETIC ANTIBODY RECEPTOR CONSTRUCTS FOR IMMUNE CELL ACTIVATION THERAPY IN VIVO” (NANOTOMER, INC., priority 2020, published 2023)", "key": {"4T1 murine breast cancer": {"system": "4T1 murine breast cancer", "assay": "Therapeutic study in BALB/c mice bearing 4T1 tumors", "format": "in vivo, mouse", "method": "(§1) When the tumor size reached approximately 100 mm3, mice were randomly divided into three groups (n=6). […] The injection schedule was twice a week for two weeks. The tumor size and body weight of the mice were monitored during the treatment course. The length (l) and width (w) of the tumor were measured by a digital vernier caliper, and tumor volume (V) was defined as: […]V=l×w2/2. The tumor growth inhibition (TGI) was estimated by a following equation: TGI (%)=(Vc−Vt)/(Vc−Vi)×100, where Vc is the volume of the control tumor at the end of the study, Vt is the volume of drug-treated tumor at the end of the study, and Vi is the volume of tumor at the initial treatment.\nBefore the diameter of tumor reached approximately 20 mm, the mice were euthanized, and lungs, livers, kidneys, hearts, pancreas, spleen, tumor, non-drain inguinal lymph nodes (far from tumor), and drain inguinal lymph nodes (located near tumor) were harvested and embedded in optimum cutting temperature (OCT) compound (TISSUE TEK™; SAKURA FINETEK™; Torrance, Calif.).\nRepresentative photos for tumors from each group on day 27 post-implant are shown in top images of FIG. 14B. We evaluated the tumor growth inhibition (TGI) rate of each group (see the details in Method)."}, "[1]": {"system": "Lewis lung carcinoma line 1 (LLC1)", "assay": "Therapeutic study in C57BL/6 mice bearing LLC1 tumors", "format": "in vivo, mouse", "conditions": "LLC1-bearing C57BL/6 mice; total dose of TAXOL® 32 μg/kg; n=6", "method": "as §1"}, "ovarian carcinoma": {"system": "ovarian carcinoma", "conditions": "cited from earlier work"}, "breast cancer": {"system": "breast cancer", "conditions": "cited from earlier work"}, "B16 melanoma": {"system": "B16 melanoma", "assay": "Therapeutic study in C57BL/6 mice bearing B16 tumors", "format": "in vivo, mouse", "source_text": "as §1, with “BALB/c (female; 7-8 weeks) were subcutaneously implanted by 4T1 (100,000 cells; ATCC® CRL-2539™) on left 4th mammary glands. C57BL/6 (female; 7-8 weeks) were subcutaneously inoculated by B16 melanoma cells (100,000 cells; ATCC® CRL-6322™) or Lewis lung carcinoma line 1 cells (LLC1) (100,000 cells; ATCC® CRL-1642™) on right rear flanks. When” for “When”\nEncouraged by the therapeutic effects for 4T1 tumor model, these protein-drug conjugates were further investigated for cancer therapy in a B16 (melanoma) or LLC1 (lung cancer)-bearing C57BL/6 mice. Drugs were now injected into mice having a tumor volume of approximately 100 mm3 according to the injection schedule identical to the 4T1 study."}, "[2]": {"assay": "Trafficking of Protin-102 in a B6 mouse, imaging 24 hours post-injection", "format": "in vivo", "method": "The clathrin heavy chains were labeled with CF680 dye, a cyanine-based dye that reacts with alkyne and is commonly used for labeling antibodies. The clathrin heavy chains were then injected into a C57BL/6 (B6) mouse, and imaging was performed 24 hours post-injection."}}, "note": "Where two headings read alike, the source gives them in different places."}
{"molecule": "CC(=O)O[C@H]1C(=O)[C@@]2(C)[C@H]([C@H](OC(=O)c3ccccc3)[C@]3(O)C[C@H](OC(=O)[C@H](O)[C@@H](NC(=O)c4ccccc4)c4ccccc4)C(C)=C1C3(C)C)[C@]1(OC(C)=O)CO[C@@H]1C[C@@H]2O", "note": "[TAXOL®, 5beta, 20-epoxy-1,2alpha, 4,7beta, 10beta, 13alpha-hexahydroxytax-11-en-9-one 4,10-diacetate 2-benzoate 13-ester with (2R,3S)—N-benzoyl-3-phenylisoserine]", "values": [{"measurement": "final volume of the tumor", "setting": "4T1 murine breast cancer; 4T1, day 27 post-implant, i.v. 2 times per week for 2 weeks, total dose of TAXOL® 32 μg/kg, n=6", "result": "1.70±0.42 ×103 mm3"}, {"measurement": "tumor growth inhibition (TGI) rate", "setting": "4T1 murine breast cancer; 4T1, end of study, identical dose of TAXOL® (8 μg/kg per injection), n=6", "result": "26.2±1.2", "unit": "%"}, {"measurement": "nodules in the lung (metastasis of 4T1 tumor)", "setting": "4T1 murine breast cancer; 4T1-bearing mice, day 27 post-implant", "result": "nodules were widely located in the lung"}, {"measurement": "tumor volume on the final day", "setting": "[1]", "result": "1.21±0.31 ×103 mm3"}, {"measurement": "Response rate", "setting": "ovarian carcinoma; regimen 135/24", "result": 13.2, "unit": "%"}, {"measurement": "Survival, median", "setting": "ovarian carcinoma; regimen 135/24", "result": 10.7, "unit": "months"}, {"measurement": "Time to Progression, median", "setting": "ovarian carcinoma; regimen 135/24", "result": 2.8, "unit": "months"}, {"measurement": "Response rate", "setting": "ovarian carcinoma; regimen 155/3 as printed", "result": 15.2, "unit": "%"}, {"measurement": "Time to Progression, median", "setting": "ovarian carcinoma; regimen 155/3 as printed", "result": 3.1, "unit": "months"}, {"measurement": "Response rate", "setting": "ovarian carcinoma; regimen 175/3 (mg/m2 / infusion h)", "result": 14.6, "unit": "%"}, {"measurement": "Survival, median", "setting": "ovarian carcinoma; regimen 175/3", "result": 11.5, "unit": "months"}, {"measurement": "Time to Progression, median", "setting": "ovarian carcinoma; regimen 175/3", "result": 4.4, "unit": "months"}, {"measurement": "Response rate", "setting": "ovarian carcinoma; regimen 175/4", "result": 21.7, "unit": "%"}, {"measurement": "Survival, median", "setting": "ovarian carcinoma; regimen 175/4", "result": 11.8, "unit": "months"}, {"measurement": "Time to Progression, median", "setting": "ovarian carcinoma; regimen 175/4", "result": 4.2, "unit": "months"}, {"measurement": "Response rate", "setting": "breast cancer; regimen 135/3", "result": 22, "unit": "%"}, {"measurement": "Survival, median", "setting": "breast cancer; regimen 135/3", "result": 10.5, "unit": "months"}, {"measurement": "Time to Progression, median", "setting": "breast cancer; regimen 135/3", "result": 3.0, "unit": "months"}, {"measurement": "Response rate", "setting": "breast cancer; regimen 175/3", "result": 28, "unit": "%"}, {"measurement": "Survival, median", "setting": "breast cancer; regimen 175/3", "result": 11.7, "unit": "months"}, {"measurement": "Time to Progression, median", "setting": "breast cancer; regimen 175/3", "result": 4.2, "unit": "months"}, {"measurement": "TGI", "setting": "B16 melanoma; B16", "result": "47.3±1.2", "unit": "%"}, {"measurement": "tumor volume on the final day", "setting": "B16 melanoma; B16-bearing C57BL/6 mice, total dose of TAXOL® 32 μg/kg, n=6", "result": "1.29±0.50 ×103 mm3"}]}
{"molecule": "Protin-102: clathrin heavy chain", "values": [{"measurement": "distribution among lymph nodes", "setting": "[2]; compared with axillary and inguinal lymph nodes", "result": "concentration in the mesenteric lymph nodes"}, {"measurement": "organ with the highest level of signal", "setting": "[2]; labeled with CF680", "result": "liver"}]}
